Reference: US10202331B2, “Antifibrinolytic compounds” (THROMBOLYTICS, LLC, priority 2014, dated 2019)

How the values were obtained:
[1] = biological target: Human Plasminogen (Homo sapiens, UniProt P00747); assay: Coupled in vitro fibrinolytic assay (fibrin clot lysis, absorbance at 405 nm); assay type: biochemical; settings: for Potency TXA = 100: relative to TXA = 100
Excerpt: The principles and procedures for these assays are as follows. • a) The coupled enzyme reactions in these fibrinolytic assays The assays are constituted of four principal reactions. These are: • (a) The thrombin catalyzed conversion of fibrinogen to the insoluble fibrin clot. Soluble human fibrinogen is a constituent of these assays. The assays are initiated by the addition of human Thrombin, causing the known partial proteolysis of fibrinogen to generate fibrin, which polymerizes to yield an insoluble, opaque “clot”. This is not the same as a fibrin clot obtained physiologically, as it lacks numerous attributes of a physiological clot. […] It is known to bind with a very high affinity to insoluble polymerized fibrin, while it has a much weaker affinity for Fibrinogen. […] All constituents are prepared at appropriate higher stock concentrations from which aliquots are taken and mixed to a final volume of 400 μliters. Included ingredients and their final (assay) concentration are: […] The plates are placed in the plate reader sample compartment maintained at 37°. Assays are conducted with or without pre incubating the fibrinolytic inhibitors with the protein(s) of interest overnight. These two protocols are as follows: • (a) Experiments without pre-incubation: These assays are constituted as follows: […] The assay solutions are mixed & stirred, and the micro titer plate placed in the plate reader. Assays are initiated by delivering a solution (20 μliters) containing Thrombin and either Urokinase or TPA. […] Following pre incubation, the assay solutions are warmed to 37° in the plate reader, and the assays carried out as in (a), above, being initiated with the addition of Thrombin and TPA or Urokinase. The role of Antifibrinolytics in slowing clot dissolution is illustrated in the FIGURE, which illustrates the type of data obtained from the coupled Fribrinolysis Assays described above in Protocols 3(a) and 3(b). […] This represents the formation of fibrin in the assays. […] As a result, an exponential decay in the amount of fibrin present in the assays is observed. This process is illustrated above over a 10 to 30 minute period in control assays, in the absence of antifibrinolytic compounds. As a rough approximation, these can be considered as two sequential exponential processes—the first, formation of fibrin, or the clot, preceding the second—clot breakdown or the fibrinolytic process. A rough measure of the efficacy of fibrinolytic inhibitors, as determined in these coupled assays, is the half-life of the pseudo exponential decline in the optical density of the assay mixtures in the second portion of the reaction. A more rigorous measure of the effectiveness of the compounds to inhibit fibrinolysis, and, by inference, physiological thrombolytic processes, can be obtained by recording the observed fibrinolytic half-lives as a function of the fibrinolytic inhibitor concentration.

[2] = test system: Kringles; assay: Ability to substitute for EACA/TXA in binding to Kringles; settings: as determined by the applicant
Excerpt: The D-configuration is preferred in the terminal amino acid in order to protect these dipeptides from peptidases.

[3] = Compounds Preincubated with Plasminogen and Fibrinogen
[4] = Compounds Preincubated with Plasminogen and Fibrinogen, relative to control without inhibitor
[5] = No Preincubation, fibrin half life relative to control without inhibitor

Chain of Human Plasminogen (P00747 20-810 limits assumed): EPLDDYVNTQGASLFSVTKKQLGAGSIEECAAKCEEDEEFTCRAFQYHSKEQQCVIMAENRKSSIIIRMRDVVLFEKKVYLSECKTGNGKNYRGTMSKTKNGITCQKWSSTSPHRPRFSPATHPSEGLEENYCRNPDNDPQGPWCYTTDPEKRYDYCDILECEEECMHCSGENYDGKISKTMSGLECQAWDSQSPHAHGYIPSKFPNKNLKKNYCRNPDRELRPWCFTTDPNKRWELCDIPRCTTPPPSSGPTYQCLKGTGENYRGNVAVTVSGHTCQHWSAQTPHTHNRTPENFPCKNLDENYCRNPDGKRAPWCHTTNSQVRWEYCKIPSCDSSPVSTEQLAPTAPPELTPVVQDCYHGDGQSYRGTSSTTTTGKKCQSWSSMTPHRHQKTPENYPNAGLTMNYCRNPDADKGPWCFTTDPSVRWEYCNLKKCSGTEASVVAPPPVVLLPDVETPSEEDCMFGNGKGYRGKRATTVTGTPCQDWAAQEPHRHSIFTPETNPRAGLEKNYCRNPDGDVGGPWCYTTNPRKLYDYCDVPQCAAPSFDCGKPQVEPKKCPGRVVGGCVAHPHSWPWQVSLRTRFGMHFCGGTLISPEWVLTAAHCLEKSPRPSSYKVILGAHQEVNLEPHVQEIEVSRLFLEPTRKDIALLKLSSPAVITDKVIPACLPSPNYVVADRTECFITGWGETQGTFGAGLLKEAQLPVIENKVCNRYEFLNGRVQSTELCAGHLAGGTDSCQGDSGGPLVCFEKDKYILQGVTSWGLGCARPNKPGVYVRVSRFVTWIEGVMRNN

## NCCCCCC(=O)O [ACA, 6-aminohexanoic acid]
[1]; [3]
  Inhibition Percent: 41.8%
  Potency TXA = 100: 52
[1]; [4]
  Percent Of Control: 172%
[1]; No Preincubation
  Inhibition Percent: 37.5%
  Potency TXA = 100: 53
[1]; [5]
  Percent Of Control: 160%

## C[S+](C)CCCCCC(=O)O [ACA_S, 6-(S,S dimethylthio) Hexanoic acid sultane]
[1]; [3]
  Inhibition Percent: 88.5%
  Potency TXA = 100: 264
[1]; [4]
  Percent Of Control: 870%
[1]; No Preincubation
  Inhibition Percent: 70.0%
  Potency TXA = 100: 111
[1]; [5]
  Percent Of Control: 333%

## Cn1cncc1C[C@H](NC(=O)CCN)C(=O)O [Anserine]
[2]
  ability to substitute for EACA/TXA: substitute for EACA/TXA

## NCCC(=O)N[C@@H](Cc1c[nH]cn1)C(=O)O [Carnosine, β-Alanyl histidine]
[2]
  ability to substitute for EACA/TXA: substitute for EACA/TXA

## NC[C@H]1CC[C@H](C(=O)O)CC1 [TXA, trans-4-(aminomethyl)cyclohexanecarboxylic acid]
[1]; [3]
  Inhibition Percent: 69.7%
  Potency TXA = 100: 100
[1]; [4]
  Percent Of Control: 329%
[1]; No Preincubation
  Inhibition Percent: 66.6%
  Potency TXA = 100: 100
[1]; [5]
  Percent Of Control: 300%

## C[S+](C)C[C@H]1CC[C@H](C(=O)O)CC1.[Cl-] [TXA_S, trans-(4-dimethylthiomethyl) Cyclohexane-1-carboxylic acid sulfonium chloride]
[1]
  anti-fibrinolytic effect compared with ACA or TXA (in words): functions as well as TXA in inhibiting fibrinolysis
[1]; [3]
  Inhibition Percent: 90.6%
  Potency TXA = 100: 321
[1]; No Preincubation
  Inhibition Percent: 71.9%
  Potency TXA = 100: 119
[1]; [5]
  Percent Of Control: 356%
